# From patent publication EP0346108A2, “Anti-infective nucleosides” (THE WELLCOME FOUNDATION LIMITED, priority 1988, dated 1989)
# Columns and labels:
# [1] = Determination of oral bioavailability by urinary recovery as parent compound; conditions: gavage, 50 mg/kg; urine collected for 24 and 48 hours post-dose
# Method: Long Evans Rats were administered the compound to be tested by gavage at a dose of 50 mg/kg. The urine was collected for 24 and 48 hours post-dose, ultrafiltered, and analysed by reverse-phase high-pressure liquid chromatography. The oral bioavailability of the compound was expressed as the percent of the dose excreted in the urine as the parent unesterified compound.
# [2] = test system: Varicella Zoster Virus (VZV); assay: VZV plaque reduction assay in monolayers of MRC5 cells; assay type: cell-based; conditions: MRC5 cells (human embryonic lung), read-out: ID₅₀(µm) VZV
# Method: Varicella Zoster Virus (VZV) is assayed in monolayers of MRC5 cells (human embryonic lung) in multiwell trays. Activity of compounds is determined in the plaque reduction assay, in which a cell monolayer is infected with a suspension of VZV. A range of concentrations of the compound to be tested (of known molarity) is then incorporated into the cell monolayer. Plaque numbers of each concentration are expressed as percentage of the control and a dose-response curve is drawn. From this curve the 50% inhibitory concentration (IC₅₀) is estimated.
# [3] = test system: Vero cells; assay: Cell toxicity, cell growth inhibition assay (MTT uptake); assay type: cell-based; conditions: 50% inhibition of cell viability at 96 hours
# Method: Cell toxicity is assessed in cell growth inhibition assay. Subconfluent cultures of Vero cells grown on 96-well microtiter dishes are exposed to different dilutions of drug, and cell viability determined daily on replicate cultures using uptake of a tetrazolium dye (MTT). The concentration required for a 50% inhibition of cell vaibility at 96 hours is termed CCID₅₀.
SMILES,Urinary Recovery (% of dose) as parent compound [1],IC50 [2],CCID₅₀ [3]
"CC#Cc1cn([C@@H]2O[C@H](COC(=O)C(C)C)[C@@H](O)[C@@H]2O)c(=O)[nH]c1=O [Example 1, 1-(5-0-Isobutyryl-β-D-arabinofuranosyl)-5-prop-1-ynyluracil]",40.35 % of dose,,
"CC#Cc1cn([C@@H]2O[C@H](COC(=O)[C@@H](N)C(C)C)[C@@H](O)[C@@H]2O)c(=O)[nH]c1=O [Example 20, 5-Prop-1-ynyl-1-(5-0-L-valyl-β-D-arabinofuranosyl)uracil]",35.90 % of dose,< 1000 nM,>500
